Assay results: publication PMC12365235, “Molecular mechanisms of thiazide-like diuretics-mediated inhibition of the human Na-Cl cotransporter” (Nature Communications, 2025)

Columns and labels:
hNCC(G230A) = target: T1, hNCC(G230A) (Homo sapiens, UniProt P55017, G230A); experiment: 125I- uptake assay, hNCC(G230A) variant; type: cell-based; conditions: for fold less sensitive than hNCC(WT) / IC50: G230A substitution; for IC50: iodide uptake
T1 construct: expressed in transfected cells
T1 sequence (P55017 1-1021 G230A): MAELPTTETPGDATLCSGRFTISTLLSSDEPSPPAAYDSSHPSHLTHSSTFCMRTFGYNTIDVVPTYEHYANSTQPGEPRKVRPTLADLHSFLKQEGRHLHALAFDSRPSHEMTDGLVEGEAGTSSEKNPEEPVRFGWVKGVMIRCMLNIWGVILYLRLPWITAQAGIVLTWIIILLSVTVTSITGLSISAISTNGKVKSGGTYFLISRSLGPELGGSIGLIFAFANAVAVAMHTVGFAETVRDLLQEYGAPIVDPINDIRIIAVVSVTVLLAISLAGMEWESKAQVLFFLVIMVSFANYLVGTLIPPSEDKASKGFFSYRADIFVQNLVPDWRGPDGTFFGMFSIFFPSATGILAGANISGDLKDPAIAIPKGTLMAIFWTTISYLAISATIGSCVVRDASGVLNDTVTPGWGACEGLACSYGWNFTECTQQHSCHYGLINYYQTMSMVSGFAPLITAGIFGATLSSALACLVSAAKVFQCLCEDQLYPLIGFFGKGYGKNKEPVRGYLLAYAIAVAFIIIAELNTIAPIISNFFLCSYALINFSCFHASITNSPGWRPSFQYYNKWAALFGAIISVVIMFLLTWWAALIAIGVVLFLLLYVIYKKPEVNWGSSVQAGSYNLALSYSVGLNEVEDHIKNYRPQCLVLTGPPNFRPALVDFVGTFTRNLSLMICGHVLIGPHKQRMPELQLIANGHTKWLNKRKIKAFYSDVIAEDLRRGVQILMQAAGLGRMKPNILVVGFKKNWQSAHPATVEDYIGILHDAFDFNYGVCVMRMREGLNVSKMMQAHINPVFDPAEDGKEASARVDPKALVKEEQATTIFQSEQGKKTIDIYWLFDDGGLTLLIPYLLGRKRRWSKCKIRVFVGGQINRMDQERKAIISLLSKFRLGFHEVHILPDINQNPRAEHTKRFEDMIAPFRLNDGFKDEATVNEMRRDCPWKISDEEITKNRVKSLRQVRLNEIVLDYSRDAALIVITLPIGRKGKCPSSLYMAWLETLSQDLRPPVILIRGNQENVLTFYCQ
Protocol: (§1) HEK293S cell lines, cultured in 293 Freestyle medium (Life Technologies; plus 10% fetal bovine serum), stably expressing hNCC and its variants were generated following published protocols. Cells were transfected using Lipofectamine 3000 (Invitrogen) with a pSBbi-RP-based plasmid containing hNCC or its variants and the SB100X vector. Puromycin (2 μg/mL; Gemini Bio-Products) was used for selection of stable cell lines.
(§2) To prepare for the uptake experiment, cells were plated at 0.5 × 10^6 cells/well in 24-well plates one day in advance. To activate NCC, cells were treated with a chloride-free hypotonic solution composed of 67.5 mM sodium-, 2.5 mM potassium-, 0.25 mM magnesium-, and 0.25 mM calcium-gluconate, as well as 7.5 mM HEPES pH 7.4 (buffered using Tris) at 37 °C for 10 min[72]. After the activation step, the experiments were carried out at room temperature. Ten minutes before the start of ^125I^− uptake, 70 μM Bumetanide (Thermo Scientific Chemicals) and 100 μM 4,4′-diisothiocyanatostilbene-2,2′-disulfonic acid (DIDS; Sigma) were added to suppress background iodide uptake activity. Indicated thiazide diuretics were also added to the indicated concentrations 10 min before the start of ^125I^− uptake. The original buffer was switched to an uptake buffer composed of 135 mM Na-gluconate, 5 mM K-gluconate, 1 mM Mg-gluconate, 1 mM Ca-gluconate, 70 μM bumetanide, 100 μM DIDS, 1 mM NaI, 0.25 μCi/ml Na^125I (American Radiolabeled Chemicals, Inc.), and 15 mM HEPES pH 7.4 (buffered using Tris), in the presence or absence of thiazide diuretics to initiate ^125I^− uptake. The ^125I^− uptake process lasted 1 h and was stopped by two rapid washes using ice-cold 110 mM MgCl2. Cells lysed using 1% sodium dodecyl sulfate (SDS) were analyzed by scintillation counting.
(§3) To calculate the fold change of the half-maximal inhibitory concentration (IC50) between hNCC(WT) and different hNCC variants, individual dose-response curves were normalized first using the smallest mean and the value of the lowest concentration as 0% and 100%, respectively. The normalized data were then fitted using the “EC50 shift” nonlinear regression in GraphPad Prism 10 with the shared EC50Control assigned to be the IC50 of hNCC(WT). The following constraints were used in the EC50 shift analysis. The EC50Control was set to be shared across all curves under analysis and constrained to be greater than 0. The EC50Ratio was constrained to be greater than 0. The bottom, top, and HillSlope were constrained to be 0, 100, and −1, respectively. For Fig. 1f, g and Supplementary Fig. 2d, GraphPad Prism 10 was used to perform curve fitting and IC50 calculation for normalized data using y = 100/(1 + (x/IC50)).

hNCC(V231M) = experiment: 125I- uptake assay, hNCC(V231M) variant; type: cell-based, human; conditions: V231M polymorphism
Protocol: as §1, §2, §3

SMILES	inhibition of transport activity (hNCC(G230A); 100 μM polythiazide, G230A)	fold less sensitive than hNCC(WT) (hNCC(G230A))	IC50 (hNCC(G230A))	sensitivity relative to hNCC(WT) (fold lower) (hNCC(V231M))
CN1C(CSCC(F)(F)F)Nc2cc(Cl)c(S(N)(=O)=O)cc2S1(=O)=O (stereo not shown) [polythiazide]	fully inhibited	~ 2 fold	1.4 nM	nearly as sensitive as the wild-type
NS(=O)(=O)c1cc(C2(O)NC(=O)c3ccccc32)ccc1Cl (stereo not shown) [chlorthalidone]	–	approximately 40 fold	930 nM	3 fold
CC1Cc2ccccc2N1NC(=O)c1ccc(Cl)c(S(N)(=O)=O)c1 (stereo not shown) [indapamide]	–	~ 2 fold	29 nM	2 fold
